Experimental findings from patent publication US12433876B2, “Septin inhibitors for treatment of cancers” (UNIVERSITY OF ROCHESTER, priority 2019, dated 2025) are described below.

For the test, the system named is BXPC-3 cells. Put plainly: Live/Dead dye flow cytometry, BXPC-3. It counts as cell-based, human. The settings on record: BXPC-3, 3 μM, 48 hours. The protocol: Cell Lines, Cell Culture, and Reagents. PANC-1, BXPC-3 and CAPAN-1, SKOV-3, MCF7, MDA-MD-231 cells were obtained from ATCC and maintained in DMEM, RPMI-1640 and IMDM supplemented with 10% fetal calf serum penicillin (100 units/mL), and streptomycin (100 μg/mL) at 37° C. with 5% CO2 in a humidified incubator. JIMT-1 cells were purchased from AddexBio Inc, USA (catalog number: C0006005) and maintained in 10% FBS and antibiotic supplemented DMEM. […] The reaction was monitored using thin-layer chromatography plates with DCM-MeOH or pure ethyl acetate as eluent. Spots were monitored in a UV chamber. […] ICM scores for each compound and their poses were calculated and compared with FCF. […] Cell viability of PANC-1, BXPC-3 and CAPAN-1 pancreatic cancer cells treated with UR214-9 was measured using the Cell Titre96R Aqueous One Solution Cell Proliferation Assay (Promega Corp., catalog number: G3580) following the procedure published earlier. […] The cells were analyzed by a 305 flow cytometer and relative live and dead cell population was calculated by inputting equal number of cells in both vehicle and control group.
A general note: A flow cytometer gives signals particle by particle.

Regarding `O=C(Nc1cc(Cl)nc(Cl)c1)Nc1cccc(SC(F)(F)F)c1F` [UR214-9], the dead cells is listed as 29.4%.
